In this assay the target is T1, TLR7/NFKb HEK cells (Homo sapiens, UniProt Q9NYK1).
T1 construct: expressed in transfected cells; host or cells: HEK cells (TLR7/NFKb reporter line)
T1 sequence (Q9NYK1 27-1049): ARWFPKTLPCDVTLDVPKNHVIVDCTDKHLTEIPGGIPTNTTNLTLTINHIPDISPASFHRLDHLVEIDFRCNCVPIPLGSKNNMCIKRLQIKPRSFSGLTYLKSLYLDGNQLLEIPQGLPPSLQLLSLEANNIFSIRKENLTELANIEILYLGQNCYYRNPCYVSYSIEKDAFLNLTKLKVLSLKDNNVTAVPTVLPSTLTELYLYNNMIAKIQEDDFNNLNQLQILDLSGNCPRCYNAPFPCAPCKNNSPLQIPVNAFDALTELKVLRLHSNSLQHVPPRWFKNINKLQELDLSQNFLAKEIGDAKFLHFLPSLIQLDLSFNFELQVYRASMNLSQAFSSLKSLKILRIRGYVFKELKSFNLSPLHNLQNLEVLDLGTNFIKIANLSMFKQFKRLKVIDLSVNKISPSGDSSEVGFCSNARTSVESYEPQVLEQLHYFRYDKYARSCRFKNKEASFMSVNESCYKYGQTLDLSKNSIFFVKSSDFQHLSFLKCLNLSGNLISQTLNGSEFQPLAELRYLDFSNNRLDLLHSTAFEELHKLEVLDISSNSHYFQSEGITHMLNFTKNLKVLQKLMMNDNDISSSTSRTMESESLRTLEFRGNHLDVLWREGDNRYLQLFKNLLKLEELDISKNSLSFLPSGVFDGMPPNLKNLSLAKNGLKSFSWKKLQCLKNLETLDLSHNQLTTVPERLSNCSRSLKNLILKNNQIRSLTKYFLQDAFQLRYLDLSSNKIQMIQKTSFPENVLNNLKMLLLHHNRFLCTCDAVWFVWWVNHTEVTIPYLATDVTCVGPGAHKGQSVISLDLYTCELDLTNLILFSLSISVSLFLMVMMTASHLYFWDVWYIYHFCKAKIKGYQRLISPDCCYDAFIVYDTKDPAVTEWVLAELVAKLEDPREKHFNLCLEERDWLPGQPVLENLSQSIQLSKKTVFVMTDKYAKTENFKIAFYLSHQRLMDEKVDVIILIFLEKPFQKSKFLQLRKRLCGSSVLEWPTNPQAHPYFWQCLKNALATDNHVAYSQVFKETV
Briefly: HEK Cell Assay (TLR7/NFKb reporter, Steady-Glo luciferase readout). The assay is classed as cell-based. Particulars: 30 min compound preincubation, then R*48 agonist for 5 hours, read-out: Potency. The method, boiled down: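 Steady-Glo luminescence after 5 h stimulation with R*48 agonist, following 30 min compound preincubation. Assay run in HEK cells carrying a TLR7/NFKb luciferase reporter, plated at 5000 cells/well and grown 24 h at 37° C (10% CO2) before treatment.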

As for `CCNC(=O)C1CCN(C[C@H]2CN(c3ccnc4nccnc34)C[C@@H](C)O2)CC1` [Compound 62, N-ethyl-1-(((2S,6R)-6-methyl-4-(pyrido[2,3-b]pyrazin-8-yl)morpholin-2-yl)methyl)piperidine-4-carboxamide], the IC50 lay within 1000 to 10000 nM. For `N[C@H]1C[C@@H](C2CC2)CN(c2ccc(C(F)F)c3ncccc23)C1` (relative stereo) [Compound 332, cis-5-cyclopropyl-1-[8-(difluoromethyl)quinolin-5-yl]piperidin-3-amine], the IC50 was less than 1000 nM. For `CC(C(=O)N[C@@H]1C[C@H](C)CN(c2ccc(C#N)c3nccnc23)C1)N1CC(N)C1` (stereo partly drawn) [Compound 267, 2-(3-aminoazetidin-1-yl)-N-[(3R,5S)-1-(8-cyanoquinoxalin-5-yl)-5-methylpiperidin-3-yl]propanamide], the IC50 is less than 1000 nM. `CC(C)C(=O)NC1CCN(C[C@H]2CN(c3ccnc4nccnc34)C[C@@H](C)O2)CC1` [Compound 61, N-(1-(((2S,6R)-6-methyl-4-(pyrido[2,3-b]pyrazin-8-yl)morpholin-2-yl)methyl)piperidin-4-yl)isobutyramide]: the IC50 was 1000 to 10000 nM. The figure for `N#Cc1ccc(N2CCC(CNC(=O)CN3CCC3)CC2)c2cccnc12` [Compound 417, 2-Azetidin-1-yl-N-[1-(8-cyano-quinolin-5-yl)-piperidin-4-ylmethyl]-acetamide] is less than 1000 nM; for `C[C@H]1C[C@@H](NC(=O)CN2CCCN(C)CC2)CN(c2ccc(C(F)(F)F)c3ncccc23)C1` [Compound 290, 2-(4-methyl-1,4-diazepan-1-yl)-N-[(3R,5S)-5-methyl-1-[8-(trifluoromethyl)quinolin-5-yl]piperidin-3-yl]acetamide] it is less than 1000 nM. On to `N#Cc1ccc(N2CCC(C(=O)NC3CCN(CC4CC4)C3)CC2)c2cccnc12` (stereo not shown) [Compound 434, 1-(8-Cyano-quinolin-5-yl)-piperidine-4-carboxylic Acid (1-cyclopropylmethyl-pyrrolidin-3-yl)-amide], for which the IC50 is less than 1000 nM.

Regarding `C[C@H]1C[C@@H](NC(=O)CC2CN(C)C2)CN(c2ccc(C(F)(F)F)c3nccnc23)C1` [Compound 363, N-[(3R,5S)-5-methyl-1-[8-(trifluoromethyl)quinoxalin-5-yl]piperidin-3-yl]-2-(1-methylazetidin-3-yl)acetamide], the IC50 is less than 1000 nM.

Take `COc1ccc(N2C[C@@H](C)C[C@@H](NC(=O)CN(C)C)C2)c2nccnc12` [Compound 203, 2-(dimethylamino)-N-[(3R,5S)-1-(8-methoxyquinoxalin-5-yl)-5-methylpiperidin-3-yl]acetamide]: the IC50 lay within 1000 to 10000 nM. In the case of `C[C@H]1C[C@@H](N(C)C(=O)CC(C)(C)N)CN(c2ccc(C(F)(F)F)c3ncccc23)C1` [Compound 465, 3-Amino-3,N-dimethyl-N-[(3R,5S)-5-methyl-1-(8-trifluoromethyl-quinolin-5-yl)-piperidin-3-yl]-butyramide], the IC50 is less than 1000 nM. Then `C[C@H]1C[C@@H](NC(=O)[C@@H](N)CO)CN(c2ccc(C(F)(F)F)c3ncccc23)C1` [Compound 476], with less than 1000 nM. Then `CCN(CC)CCNCC1CCN(c2ccnc3ccc(C)cc23)CC1` [Compound 384, N,N-Diethyl-N′-[1-(6-methyl-quinolin-4-yl)-piperidin-4-ylmethyl]-ethane-1,2-diamine], with 1000 to 10000 nM; and `C[C@@H]1CN(c2ccnc3ccccc23)C[C@H](C)O1` [Compound 45, (2S,6R)-2,6-dimethyl-4-(quinolin-4-yl)morpholine], with greater than 10000 nM; and `C[C@H]1C[C@@H](NC2CCOC2)CN(c2ccc(C#N)c3nccnc23)C1` (stereo partly drawn) [Compound 138, 8-[(3S,5R)-3-methyl-5-[(oxolan-3-yl)amino]piperidin-1-yl]quinoxaline-5-carbonitrile], with less than 1000 nM. Then `C[C@H]1C[C@@H](NC(=O)CC(C)(C)C)CN(c2ccc(C(F)F)c3ncccc23)C1` [Compound 205, N-[(3R,5S)-1-[8-(difluoromethyl)quinolin-5-yl]-5-methylpiperidin-3-yl]-3,3-dimethylbutanamide], with less than 1000 nM; and `CN(C)CC(=O)N[C@H]1C[C@@H](C2CC2)CN(c2ccc(C#N)c3nccnc23)C1` (relative stereo) [Compound 179, cis-N-[1-(8-cyanoquinoxalin-5-yl)-5-cyclopropylpiperidin-3-yl]-2-(dimethylamino)acetamide], with 1000 to 10000 nM. On to `C[C@H]1C[C@@H](NC(=O)CC2CN(C)C2)CN(c2ccc(C(F)(F)F)c3ncccc23)C1` [Compound 360, N-[(3R,5S)-5-methyl-1-[8-(trifluoromethyl)quinolin-5-yl]piperidin-3-yl]-2-(1-methylazetidin-3-yl)acetamide], for which the IC50 was less than 1000 nM. Then `C[C@H]1C[C@@H](NC(=O)CN2CCC(C)(C)C2)CN(c2ccc(C(F)(F)F)c3ncccc23)C1` [Compound 573, 2-(3,3-Dimethyl-pyrrolidin-1-yl)-N-[(3R,5S)-5-methyl-1-(8-trifluoromethyl-quinolin-5-yl)-piperidin-3-yl]-acetamide], with less than 1000 nM; and `C[C@H]1C[C@@H](NC(=O)[C@H](C)N(C)C)CN(c2ccc(C(F)(F)F)c3ncccc23)C1` [Compound 526, (S)-2-Dimethylamino-N-[(3R,5S)-5-methyl-1-(8-trifluoromethyl-quinolin-5-yl)-piperidin-3-yl]-propionamide], with less than 1000 nM; and `CC(O)C(=O)N[C@@H]1C[C@H](C)CN(c2ccc(C(F)(F)F)c3nccnc23)C1` (stereo partly drawn) [Compound 292, 2-hydroxy-N-[(3R,5S)-5-methyl-1-[8-(trifluoromethyl)quinoxalin-5-yl]piperidin-3-yl]propanamide], with 1000 to 10000 nM. As to `N#Cc1ccc(N2CC(N)CC(C(F)(F)F)C2)c2nccnc12` (single isomer, unassigned) [Compound 83], the IC50 was less than 1000 nM. The figure for `N#Cc1ccc(N2CC(NC(=O)CCC(=O)N3CCC3)CC(C(F)(F)F)C2)c2cccnc12` (single isomer, unassigned) [Compound 495] is 1000 to 10000 nM. In the case of `COc1ccc(N2C[C@@H](C)C[C@@H](NC(=O)CC(C)(C)C)C2)c2cccnc12` [Compound 189, N-[(3R,5S)-1-(8-methoxyquinolin-5-yl)-5-methylpiperidin-3-yl]-3,3-dimethylbutanamide], the IC50 fell in the range of 1000 to 10000 nM. Then `C[C@H]1C[C@@H](NC(=O)CNS(C)(=O)=O)CN(c2ccc(C#N)c3nccnc23)C1` [Compound 140, N-[(3R,5S)-1-(8-cyanoquinoxalin-5-yl)-5-methylpiperidin-3-yl]-2-methanesulfonamidoacetamide], with less than 1000 nM; and `N#Cc1ccc(N2CC(NC(=O)CC3(N)CCCCC3)CC(C(F)(F)F)C2)c2cccnc12` (single isomer, unassigned) [Compound 497], with less than 1000 nM. Consider `CC1(C)C[C@@H](NC(=O)CC(F)(F)F)CN(c2ccc(C#N)c3nccnc23)C1` [Compound 220, N-[(3R)-1-(8-cyanoquinoxalin-5-yl)-5,5-dimethylpiperidin-3-yl]-3,3,3-trifluoropropanamide], for which the IC50 fell in the range of 1000 to 10000 nM. With `N#Cc1ccc(N2CC(N)CC(F)(F)C2)c2nccnc12` (single isomer, unassigned) [Compound 76], the IC50 lay within 1000 to 10000 nM. The figure for `C[C@H]1C[C@@H](NC(=O)C(C)(C)C2CCN(C)CC2)CN(c2ccc(C#N)c3nccnc23)C1` [Compound 349, N-[(3R,5S)-1-(8-cyanoquinoxalin-5-yl)-5-methylpiperidin-3-yl]-2-methyl-2-(1-methylpiperidin-4-yl)propanamide] is less than 1000 nM.

For `C[C@H]1C[C@@H](NC(=O)CC2CCCN(C)C2)CN(c2ccc(C(F)F)c3nccnc23)C1` (stereo partly drawn) [Compound 318, N-[(3R,5S)-1-[8-(difluoromethyl)quinoxalin-5-yl]-5-methylpiperidin-3-yl]-2-(1-methylpiperidin-3-yl)acetamide], the IC50 is less than 1000 nM. For `C[C@H]1C[C@@H](NC(=O)CN2CC(O)C2)CN(c2ccc(C(F)(F)F)c3nccnc23)C1` [Compound 296, 2-(3-hydroxyazetidin-1-yl)-N-[(3R,5S)-5-methyl-1-[8-(trifluoromethyl)quinoxalin-5-yl]piperidin-3-yl]acetamide], the IC50 was less than 1000 nM.

Take `CN1CCCC1C(=O)NCC1CCN(c2ccc(C#N)c3ncccc23)CC1` (stereo not shown) [Compound 418, 1-Methyl-pyrrolidine-2-carboxylic acid [1-(8-cyano-quinolin-5-yl)-piperidin-4-ylmethyl]-amide]: the IC50 is less than 1000 nM.

The record behind these values is US10947213B1 (Merck Patent GmbH, priority 2015, dated 2021).
